According to patent publication US7581540B2, “Aerosol drug delivery device incorporating percussively activated heat packages” (Alexza Pharmaceuticals, Inc., priority 2004, dated 2009):
Where two headings read alike, the source gives them in different places.

Experiments:
[1] = 25° C.; cited from earlier work
[2] = cited from earlier work
[3] = drug aerosol purity and recovered yield after vaporization from a percussively ignited heat package, HPLC; assay type: physicochemical
[4] = 350° C., air flow 28.3 L/min
Experimental: To coat metal foils, the (nicotine)2-ZnBr2 complex was dissolved in chloroform. Two separate coating thickness of the (nicotine)2-ZnBr2 complex on stainless steel were prepared. A 169.4 mg/mL solution of (nicotine)2-ZnBr2 complex in chloroform and a 338.8 mg/mL solution of (nicotine)2-ZnBr2 complex in chloroform were made. Exposure to light was minimized at all times during and after formation of these solutions. The (nicotine)2-ZnBr2 complex for each solution was hand coated onto 0.005 inch thick stainless foils using a 10 uL Hamilton syringe. 5.9 uL of the 169.4 mg/mL (nicotine)2-ZnBr2 complex solution was coated onto both sides of an area of 1.27 cm×2.3 cm of stainless steel. This corresponds to a 2 μm film thickness coating which contained about 1 mg of nicotine. Similarly, 8.8 μL of the 338.8 mg/mL (nicotine)2-ZnBr2 complex solution was coated onto both sides of an area of 1.27 cm×2.3 cm of stainless steel. This corresponds to a […] film thickness coating which contained about […] of nicotine The coatings were dried under vacuum for about 1 hour at 25° C. The coatings of (nicotine)2-ZnBr2 complex were stored in a vacuum for at least 30 minutes and protected from light prior to use.
The coatings of (nicotine)2-ZnBr2 complex were vaporized by applying a current of 13.0V to the metal foil sufficient to heat the coatings to temperature of 350° C. The aerosol formed by vaporizing the coating in an air flow of 28.3 L/min was analyzed by collected the aerosol on oxalic acid coated filters using an 8 stage Anderson impactor. […] After vaporization the filters were extracted with 5 mL of 0.1% trifluoroacetic acid/DI H2O and analyzed by HPLC.

[5] = airflow about 20 L/min
[6] = for average nicotine purity of the aerosol: maximum temperature 300° C., air flow 20 L/min
Experimental: The purity of nicotine in an aerosol produced by vaporizing thin films of (nicotine)2-ZnBr2 was also determined. The percent purity of nicotine in the aerosol was determined by comparing the area under the curve representing nicotine with the area under the curve for all other components separated by HPLC.
The coatings of (nicotine)2-ZnBr2 complex were vaporized by applying a current to the metal foil sufficient to heat the coatings to temperatures of 300° C., 350° C., and 400° C. The aerosol formed by vaporizing the coating in an air flow of 20 L/min was analyzed by collecting the aerosol on oxalic acid coated filters. The collected aerosol was extracted from the filters with 5 mL of an aqueous solution containing 0.1% TFA. A Varian HPLC system having a single XTerra RP18, 4.6×150 mm column, with an eluant solution comprising a 75% aqueous phase of perchloric acid solution with one ampoule of 1-octanesulfonic acid sodium salt concentrate at pH 2, and a 25% organic phase of acetonitrile was used. The HPLC was performed under isocratic run conditions for 20 minutes.

[7] = smokeless nicotine products (chewing tobacco, oral snuff, tobacco sachets), buccal absorption

## CN1CCCC1c1cccnc1 (stereo not shown) [nicotine]
[1]
  vapor pressure: 0.0425 mmHg
[2]; cigarette smoking
  time to attain nicotine blood level peak: ≤ 10 min
[2]; produced by cigarettes
  nicotine blood level peak: 30 to 40 ng/mL
[2]; [7]
  maximum nicotine blood concentration: approximately 12 ng/mL
  time of use to attain maximum nicotine blood concentration: approximately 30 minutes

## CC(C)C(=O)OCC(=O)[C@@]12O[C@H](C3CCCCC3)O[C@@H]1C[C@H]1[C@@H]3CCC4=CC(=O)C=C[C@]4(C)[C@H]3[C@@H](O)C[C@@]12C [ciclesonide]
[3]; percussively ignited heat package, greater than 800° C., air flow 20 L/min, film 1.58 μm alprazolam, 6.33 μm pramipexole, 2.53 μm ciclesonide
  purity of the resultant aerosol: 85.6%

## CN1CCCC1c1cccnc1.CN1CCCC1c1cccnc1.[Br][Zn][Br] (stereo not shown) [(nicotine)2-ZnBr2]
[4]; 2 μm thick film
  MMAD of the nicotine aerosol: 2.00
  purity of the nicotine aerosol: greater than 97%
[4]; 6 μm thick film
  MMAD of the nicotine aerosol: 1.79
  purity of the nicotine aerosol: greater than 97%
[5]; 2 μm thick thin film, temperature range 300° C. to 400° C.
  average yield of nicotine in the aerosol: about 60±7%
[5]; 6 μm thick thin film, maximum temperature 300° C.
  average yield of nicotine in the aerosol: about 51±2%
[5]; 6 μm thick thin film, maximum temperature 400° C.
  average yield of nicotine in the aerosol: about 73±1%
[6]; 2 μm thick thin film
  average nicotine purity of the aerosol: about 99.5%
[6]; 6 μm thick thin film
  average nicotine purity of the aerosol: about 99.99%
[6]; for a given vaporization temperature
  purity of nicotine aerosol from 6 μm film compared with 2 μm film: greater
[6]; thin film heated to a maximum temperature of greater than 300° C.
  change of nicotine purity of the aerosol: decreased

## Cc1nnc2n1-c1ccc(Cl)cc1C(c1ccccc1)=NC2 [alprazolam]
[3]
  purity of the resultant aerosol: 96.8%
  recovered yield of aerosol: 100%
